Measured values from patent publication US9371336B2, “Compounds for treating spinal muscular atrophy” (PTC Therapeutics Inc., priority 2012, dated 2016).

Assays:
Smn protein = Smn protein assay (HTRF) in cultured cells (SMA patient fibroblasts GM03813); assay type: cell-based, human; conditions: 48 hours; for maximum fold (Fold) increase of Smn protein: SMA patient fibroblast cells, 7-point concentration curve, relative to vehicle control; for EC1.5x for Smn protein expression: SMA patient fibroblast cells (GM03813), HTRF, 7-point concentration data, concentration producing 1.5 times Smn protein vs DMSO vehicle control
Method in brief: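 Smn level is expressed as fold over vehicle, from blank-corrected ΔF of the 665/620 nm HTRF ratio. Readout used anti-SMN d2 and kryptate antibodies on RIPA lysates. GM03813 SMA fibroblasts had 48 h exposure at 37° C to seven 3.16-fold compound dilutions, run in triplicate.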

[1] = test system: SMN2 minigene mRNA (SMN2-A minigene construct); assay: SMN2 minigene mRNA splicing RT-qPCR assay in cultured cells; assay type: cell-based, human; conditions: Homo sapiens, HEK293-H; HEK293H cells stably transfected with SMN2-A minigene, 24 hours, 7-point concentration data; concentration giving 1.5-fold SMN2 full length mRNA relative to vehicle-treated cells; read-out: EC1.5x for production of full length SMN2 mRNA
Method in brief: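 Full-length SMN2 minigene mRNA, measured by exon 7/luciferase-specific RT-qPCR that excludes endogenous SMN1/SMN2, was normalized to GAPDH and expressed relative to vehicle-treated cells via modified ΔΔCt. Stably transfected HEK293H cells received compound (7-point, 3.16-fold series, duplicates) for 24 h at 37 °C.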

SMILES	melting point [°C]	maximum fold (Fold) increase of Smn protein (Smn protein)	EC (1.5-fold) [1] [µM]	EC1.5x for Smn protein expression (Smn protein)
Cl.O=c1oc2cc(N3CCNCC3)ncc2cc1-c1cn2ccccc2n1 [Cpd 42, 3-(imidazo[1,2-a]pyridin-2-yl)-7-(piperazin-1-yl)-2H-pyrano[3,2-c]pyridin-2-one hydrochloride]	278 to 284	** (a fold increase between >1.2 and ≦1.35 is indicated by two stars (**))	3 to 30	
Cl.O=c1oc2nc(N3CCCNCC3)ccc2cc1-c1cn2cccc(F)c2n1 [Cpd 46, 7-(1,4-diazepan-1-yl)-3-(8-fluoroimidazo[1,2-a]pyridin-2-yl)-2H-pyrano[2,3-b]pyridin-2-one hydrochloride]	267 to 269	**** (a fold increase between >1.5 and ≦1.65 is indicated by four stars (****))	≤ 0.1	**** (an EC1.5×≦0.3 μM is indicated by four stars (****))
Cl.O=c1oc2nc(N3CCCNCC3)ccc2cc1-c1cn2cccc(Cl)c2n1 [Cpd 47, 3-(8-chloroimidazo[1,2-a]pyridin-2-yl)-7-(1,4-diazepan-1-yl)-2H-pyrano[2,3-b]pyridin-2-one hydrochloride]	252 to 255	***** (a fold increase >1.65 is indicated by five stars (*****))	≤ 0.1	**** (an EC1.5×≦0.3 μM is indicated by four stars (****))
Cc1cn2cc(-c3cc4cnc(N5CCN(C)CC5)cc4oc3=O)nc2s1 [Cpd 55, 3-(2-methylimidazo[2,1-b][1,3]thiazol-6-yl)-7-(4-methylpiperazin-1-yl)-2H-pyrano[3,2-c]pyridin-2-one]	282 to 286	*** (a fold increase between >1.35 and ≦1.5 is indicated by three stars (***))	1 to 3	** (an EC1.5× between >1 and ≦3 μM is indicated by two stars (**))
C[C@@H]1CN(c2ccc3cc(-c4cn5ccccc5n4)c(=O)oc3n2)C[C@H](C)N1 [Cpd 60, 7-[(3R,5S)-3,5-dimethylpiperazin-1-yl]-3-(imidazo[1,2-a]pyridin-2-yl)-2H-pyrano[2,3-b]pyridin-2-one]	283 to 285	*** (a fold increase between >1.35 and ≦1.5 is indicated by three stars (***))	≤ 0.1	** (an EC1.5× between >1 and ≦3 μM is indicated by two stars (**))
Cc1ccn2cc(-c3cc4ccc(N5CCN(C)[C@@H](C)C5)nc4oc3=O)nc2c1 [Cpd 61, 7-[(3S)-3,4-dimethylpiperazin-1-yl]-3-(7-methylimidazo[1,2-a]pyridin-2-yl)-2H-pyrano[2,3-b]pyridin-2-one]	246 to 250	**** (a fold increase between >1.5 and ≦1.65 is indicated by four stars (****))	≤ 0.1	**** (an EC1.5×≦0.3 μM is indicated by four stars (****))
Cc1ccn2cc(-c3cc4ccc(N5CCN(C)C[C@@H]5C)nc4oc3=O)nc2c1 [Cpd 62, 7-[(2S)-2,4-dimethylpiperazin-1-yl]-3-(7-methylimidazo[1,2-a]pyridin-2-yl)-2H-pyrano[2,3-b]pyridin-2-one]	242 to 246	**** (a fold increase between >1.5 and ≦1.65 is indicated by four stars (****))	≤ 0.1	**** (an EC1.5×≦0.3 μM is indicated by four stars (****))
Cc1ccn2cc(-c3cc4ccc(N5CCCNCC5)nc4oc3=O)nc2c1 [Cpd 65, 7-(1,4-diazepan-1-yl)-3-(7-methylimidazo[1,2-a]pyridin-2-yl)-2H-pyrano[2,3-b]pyridin-2-one]	239 to 241	**** (a fold increase between >1.5 and ≦1.65 is indicated by four stars (****))	0.3 to 1	**** (an EC1.5×≦0.3 μM is indicated by four stars (****))
Cc1ccc2nc(-c3cc4ccc(N5CCCNCC5)nc4oc3=O)cn2c1 [Cpd 66, 7-(1,4-diazepan-1-yl)-3-(6-methylimidazo[1,2-a]pyridin-2-yl)-2H-pyrano[2,3-b]pyridin-2-one]	240 to 243	*** (a fold increase between >1.35 and ≦1.5 is indicated by three stars (***))	0.1 to 0.3	** (an EC1.5× between >1 and ≦3 μM is indicated by two stars (**))
Cc1ccc2nc(-c3cc4ccc(N5C[C@@H](C)N[C@@H](C)C5)nc4oc3=O)cn2c1 [Cpd 67, 7-[(3R,5S)-3,5-dimethylpiperazin-1-yl]-3-(6-methylimidazo[1,2-a]pyridin-2-yl)-2H-pyrano[2,3-b]pyridin-2-one]	248 to 251	**** (a fold increase between >1.5 and ≦1.65 is indicated by four stars (****))	≤ 0.1	*** (an EC1.5× between >0.3 μM and ≦1 μM is indicated by three stars (***))

The next lines start with results.

melting point [°C]	SMILES	maximum fold (Fold) increase of Smn protein (Smn protein)	EC (1.5-fold) [1] [µM]	EC1.5x for Smn protein expression (Smn protein)
265 to 267	Cl.O=c1oc2nc(N3CCCNCC3)ccc2cc1-c1cn2ccccc2n1 [Cpd 45, 7-(1,4-diazepan-1-yl)-3-(imidazo[1,2-a]pyridin-2-yl)-2H-pyrano[2,3-b]pyridin-2-one hydrochloride]	**** (a fold increase between >1.5 and ≦1.65 is indicated by four stars (****))	0.1 to 0.3	*** (an EC1.5× between >0.3 μM and ≦1 μM is indicated by three stars (***))
271 to 274	CN1CCCN(c2ccc3cc(-c4cn5ccccc5n4)c(=O)oc3n2)CC1 [Cpd 48, 3-(imidazo[1,2-a]pyridin-2-yl)-7-(4-methyl-1,4-diazepan-1-yl)-2H-pyrano[2,3-b]pyridin-2-one]	**** (a fold increase between >1.5 and ≦1.65 is indicated by four stars (****))	0.1 to 0.3	*** (an EC1.5× between >0.3 μM and ≦1 μM is indicated by three stars (***))
269 to 272	CN1CCCN(c2ccc3cc(-c4cn5cccc(F)c5n4)c(=O)oc3n2)CC1 [Cpd 49, 3-(8-fluoroimidazo[1,2-a]pyridin-2-yl)-7-(4-methyl-1,4-diazepan-1-yl)-2H-pyrano[2,3-b]pyridin-2-one]	**** (a fold increase between >1.5 and ≦1.65 is indicated by four stars (****))	≤ 0.1	*** (an EC1.5× between >0.3 μM and ≦1 μM is indicated by three stars (***))
245 to 246	CN1CCCN(c2ccc3cc(-c4cn5cccc(Cl)c5n4)c(=O)oc3n2)CC1 [Cpd 50, 3-(8-chloroimidazo[1,2-a]pyridin-2-yl)-7-(4-methyl-1,4-diazepan-1-yl)-2H-pyrano[2,3-b]pyridin-2-one]	***** (a fold increase >1.65 is indicated by five stars (*****))	≤ 0.1	**** (an EC1.5×≦0.3 μM is indicated by four stars (****))
284 to 286	Cl.O=c1oc2nc(N3CCCNCC3)ccc2cc1-c1nc2ccccc2s1 [Cpd 51, 3-(1,3-benzothiazol-2-yl)-7-(1,4-diazepan-1-yl)-2H-pyrano[2,3-b]pyridin-2-one hydrochloride]	** (a fold increase between >1.2 and ≦1.35 is indicated by two stars (**))	0.3 to 1	
243 to 245	Cl.O=c1oc2nc(N3CCCNCC3)ccc2cc1-c1nc2ccccc2o1 [Cpd 52, 3-(1,3-benzoxazol-2-yl)-7-(1,4-diazepan-1-yl)-2H-pyrano[2,3-b]pyridin-2-one hydrochloride]	* (A maximum fold increase ≦1.2 is indicated by one star (*))	3 to 30	
264 to 268	Cc1ccn2nc(-c3cc4ccc(N5CCN(C)CC5)nc4oc3=O)cc2c1 [Cpd 53, 7-(4-methylpiperazin-1-yl)-3-(5-methylpyrazolo[1,5-a]pyridin-2-yl)-2H-pyrano[2,3-b]pyridin-2-one]	*** (a fold increase between >1.35 and ≦1.5 is indicated by three stars (***))	0.1 to 0.3	
268 to 272	CN1CCN(c2ccc3cc(-c4cn5ccsc5n4)c(=O)oc3n2)CC1 [Cpd 54, 3-(imidazo[2,1-b][1,3]thiazol-6-yl)-7-(4-methylpiperazin-1-yl)-2H-pyrano[2,3-b]pyridin-2-one]	**** (a fold increase between >1.5 and ≦1.65 is indicated by four stars (****))	0.1 to 0.3	*** (an EC1.5× between >0.3 μM and ≦1 μM is indicated by three stars (***))
274 to 276	CN1CCCN(c2ccc3cc(-c4nc5ccccc5s4)c(=O)oc3n2)CC1 [Cpd 56, 3-(1,3-benzothiazol-2-yl)-7-(4-methyl-1,4-diazepan-1-yl)-2H-pyrano[2,3-b]pyridin-2-one]	** (a fold increase between >1.2 and ≦1.35 is indicated by two stars (**))	0.1 to 0.3	* (An EC1.5× for Smn protein expression between >3 μM and ≦10 μM is indicated by one star (*))
